The source of these data is ChEMBL document CHEMBL1201862, “PubChem BioAssay data set” (2004).

Calls of active or inactive are those of the source.

In test [1] the test system is Streptococcus sp. 'group A'. The experiment in a line: Streptococcus pyogenes SK(-)GAS viability under kanamycin – luminescence, BacTiterGlo, confirmation, counter-screen for streptokinase expression inhibitor project, dose response (AID 1900). The test is classed as functional, organism-based.
Test [2] concerns Streptococcus. The experiment in a line: GAS UMAA2166 growth inhibition – luminescence, BacTiterGlo, counter-screen for streptokinase expression inhibitor project, dose response (AID 1915).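 Further: potency for reduction of bacterial viability or growth.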 The test is classed as functional, organism-based. In general terms: The purpose of a counterscreen is to sort out artefacts and off-target activity.
Test [3] deals with T1, Caspase-3 (Homo sapiens, UniProt P42574).
T1 sequence (P42574 whole entry): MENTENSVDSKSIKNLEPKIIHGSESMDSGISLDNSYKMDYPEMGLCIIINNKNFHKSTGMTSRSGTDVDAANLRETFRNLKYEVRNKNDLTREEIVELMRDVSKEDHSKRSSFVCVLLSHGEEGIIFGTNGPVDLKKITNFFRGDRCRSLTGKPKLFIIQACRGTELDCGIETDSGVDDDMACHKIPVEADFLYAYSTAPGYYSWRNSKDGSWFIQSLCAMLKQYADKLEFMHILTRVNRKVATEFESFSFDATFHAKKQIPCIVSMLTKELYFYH
The test is classed as functional.

The target of test [4] is T2, Sentrin-specific protease 7 (Homo sapiens, UniProt Q9BQF6).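 Further: Luminescence-based dose-response confirmation of ultra-high-throughput screening hits, measuring inhibition of SENP7.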
T2 sequence (Q9BQF6 whole entry): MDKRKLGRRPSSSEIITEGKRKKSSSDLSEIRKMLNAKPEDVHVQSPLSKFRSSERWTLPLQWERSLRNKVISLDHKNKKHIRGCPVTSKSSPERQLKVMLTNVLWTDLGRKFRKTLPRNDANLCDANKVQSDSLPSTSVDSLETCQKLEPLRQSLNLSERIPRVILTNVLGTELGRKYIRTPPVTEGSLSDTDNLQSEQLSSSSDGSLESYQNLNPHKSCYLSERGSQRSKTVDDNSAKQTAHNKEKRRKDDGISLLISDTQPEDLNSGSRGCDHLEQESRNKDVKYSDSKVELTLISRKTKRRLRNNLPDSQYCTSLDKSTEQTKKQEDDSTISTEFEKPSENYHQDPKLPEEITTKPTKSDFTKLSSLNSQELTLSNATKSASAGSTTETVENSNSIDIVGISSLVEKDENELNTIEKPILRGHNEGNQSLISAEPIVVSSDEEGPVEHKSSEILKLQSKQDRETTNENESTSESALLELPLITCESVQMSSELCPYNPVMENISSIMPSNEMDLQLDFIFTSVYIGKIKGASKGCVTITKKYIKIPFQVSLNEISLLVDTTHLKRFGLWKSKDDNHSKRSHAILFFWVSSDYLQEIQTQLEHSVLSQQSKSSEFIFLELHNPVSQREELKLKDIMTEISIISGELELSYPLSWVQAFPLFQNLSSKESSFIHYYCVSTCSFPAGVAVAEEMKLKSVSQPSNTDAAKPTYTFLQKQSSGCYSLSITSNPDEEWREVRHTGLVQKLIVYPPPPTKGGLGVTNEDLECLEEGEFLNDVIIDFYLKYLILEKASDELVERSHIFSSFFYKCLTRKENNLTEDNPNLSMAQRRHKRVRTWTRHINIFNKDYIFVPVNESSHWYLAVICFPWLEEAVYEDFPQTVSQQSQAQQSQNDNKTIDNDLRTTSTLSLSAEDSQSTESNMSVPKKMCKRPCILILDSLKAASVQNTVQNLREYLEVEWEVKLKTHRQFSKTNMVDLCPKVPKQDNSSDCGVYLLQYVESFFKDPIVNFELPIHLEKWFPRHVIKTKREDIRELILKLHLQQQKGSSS
The test is classed as functional.

In test [5] the target is T3, Sentrin-specific protease 8 (Homo sapiens, UniProt Q96LD8).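 Further: luminescence read-out of SENP8 inhibition, dose-response confirmation following an ultra-high-throughput screen.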
T3 sequence (Q96LD8 whole entry): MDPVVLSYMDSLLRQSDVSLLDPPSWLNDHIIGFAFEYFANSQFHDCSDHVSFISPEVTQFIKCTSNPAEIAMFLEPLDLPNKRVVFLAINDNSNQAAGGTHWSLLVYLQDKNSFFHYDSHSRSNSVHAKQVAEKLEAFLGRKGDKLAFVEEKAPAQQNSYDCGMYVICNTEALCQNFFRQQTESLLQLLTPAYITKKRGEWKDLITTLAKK
The test is classed as functional.

Test [6] deals with T4, Tyrosine-protein kinase receptor TYRO3 (Homo sapiens, UniProt Q06418).
T4 sequence (Q06418 whole entry): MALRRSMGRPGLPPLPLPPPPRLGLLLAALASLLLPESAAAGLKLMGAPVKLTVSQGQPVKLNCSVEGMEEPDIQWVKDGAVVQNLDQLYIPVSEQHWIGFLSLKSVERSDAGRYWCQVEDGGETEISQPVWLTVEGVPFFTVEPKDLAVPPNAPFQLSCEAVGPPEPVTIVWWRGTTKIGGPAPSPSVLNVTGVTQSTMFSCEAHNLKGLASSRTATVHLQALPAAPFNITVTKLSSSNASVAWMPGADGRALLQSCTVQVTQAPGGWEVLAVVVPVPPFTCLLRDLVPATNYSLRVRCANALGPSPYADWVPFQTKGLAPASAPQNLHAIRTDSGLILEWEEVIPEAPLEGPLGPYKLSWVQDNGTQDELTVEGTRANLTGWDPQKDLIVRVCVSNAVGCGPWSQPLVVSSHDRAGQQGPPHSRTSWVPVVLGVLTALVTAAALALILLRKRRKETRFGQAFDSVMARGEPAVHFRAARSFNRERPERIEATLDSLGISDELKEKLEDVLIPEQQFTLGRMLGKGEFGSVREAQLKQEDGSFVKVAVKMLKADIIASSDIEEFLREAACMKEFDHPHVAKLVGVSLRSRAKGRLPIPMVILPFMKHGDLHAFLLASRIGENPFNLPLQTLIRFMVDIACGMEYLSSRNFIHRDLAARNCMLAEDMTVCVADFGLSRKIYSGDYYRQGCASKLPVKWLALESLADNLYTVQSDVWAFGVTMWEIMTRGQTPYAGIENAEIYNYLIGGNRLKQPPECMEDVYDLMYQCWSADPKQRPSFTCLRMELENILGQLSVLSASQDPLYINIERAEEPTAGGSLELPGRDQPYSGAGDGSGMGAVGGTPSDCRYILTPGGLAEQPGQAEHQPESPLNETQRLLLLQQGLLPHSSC
The test is classed as functional.

For test [7], the target named is Cyclin-dependent kinase 5 (Homo sapiens, UniProt Q00535). In kind it is functional.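 Further: CDK5 measured as one member of a kinase profiling panel.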
Test [8] addresses Platelet-derived growth factor receptor alpha (Homo sapiens, UniProt P16234). The experiment in a line: Navigating the Kinome. Panel member name: PDGFRA. In kind it is functional.
Test [9] deals with Aurora kinase B (Homo sapiens, UniProt Q96GD4). The test is classed as functional.
Test [10] deals with Dual specificity tyrosine-phosphorylation-regulated kinase 1A (Homo sapiens, UniProt Q13627). The test is classed as functional.

Cyclin-dependent kinase 5, sequence (Q00535 whole entry): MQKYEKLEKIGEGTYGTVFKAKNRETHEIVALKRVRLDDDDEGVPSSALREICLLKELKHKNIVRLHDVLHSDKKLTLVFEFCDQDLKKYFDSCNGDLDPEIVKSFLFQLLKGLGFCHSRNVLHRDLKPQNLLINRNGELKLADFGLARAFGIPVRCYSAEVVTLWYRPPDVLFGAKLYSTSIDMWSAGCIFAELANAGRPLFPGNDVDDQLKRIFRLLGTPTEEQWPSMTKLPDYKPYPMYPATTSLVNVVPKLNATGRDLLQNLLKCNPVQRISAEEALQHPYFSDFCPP
Aurora kinase B, sequence (Q96GD4 whole entry): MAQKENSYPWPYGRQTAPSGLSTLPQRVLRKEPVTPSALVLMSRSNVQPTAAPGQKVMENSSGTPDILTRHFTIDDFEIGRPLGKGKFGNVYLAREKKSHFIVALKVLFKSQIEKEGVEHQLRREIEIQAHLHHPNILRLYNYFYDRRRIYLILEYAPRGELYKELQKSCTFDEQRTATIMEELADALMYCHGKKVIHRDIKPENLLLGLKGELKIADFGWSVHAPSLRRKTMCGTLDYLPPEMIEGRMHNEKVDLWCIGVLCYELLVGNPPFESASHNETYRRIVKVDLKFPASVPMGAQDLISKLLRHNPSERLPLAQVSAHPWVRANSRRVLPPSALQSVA
Platelet-derived growth factor receptor alpha, sequence (P16234 whole entry): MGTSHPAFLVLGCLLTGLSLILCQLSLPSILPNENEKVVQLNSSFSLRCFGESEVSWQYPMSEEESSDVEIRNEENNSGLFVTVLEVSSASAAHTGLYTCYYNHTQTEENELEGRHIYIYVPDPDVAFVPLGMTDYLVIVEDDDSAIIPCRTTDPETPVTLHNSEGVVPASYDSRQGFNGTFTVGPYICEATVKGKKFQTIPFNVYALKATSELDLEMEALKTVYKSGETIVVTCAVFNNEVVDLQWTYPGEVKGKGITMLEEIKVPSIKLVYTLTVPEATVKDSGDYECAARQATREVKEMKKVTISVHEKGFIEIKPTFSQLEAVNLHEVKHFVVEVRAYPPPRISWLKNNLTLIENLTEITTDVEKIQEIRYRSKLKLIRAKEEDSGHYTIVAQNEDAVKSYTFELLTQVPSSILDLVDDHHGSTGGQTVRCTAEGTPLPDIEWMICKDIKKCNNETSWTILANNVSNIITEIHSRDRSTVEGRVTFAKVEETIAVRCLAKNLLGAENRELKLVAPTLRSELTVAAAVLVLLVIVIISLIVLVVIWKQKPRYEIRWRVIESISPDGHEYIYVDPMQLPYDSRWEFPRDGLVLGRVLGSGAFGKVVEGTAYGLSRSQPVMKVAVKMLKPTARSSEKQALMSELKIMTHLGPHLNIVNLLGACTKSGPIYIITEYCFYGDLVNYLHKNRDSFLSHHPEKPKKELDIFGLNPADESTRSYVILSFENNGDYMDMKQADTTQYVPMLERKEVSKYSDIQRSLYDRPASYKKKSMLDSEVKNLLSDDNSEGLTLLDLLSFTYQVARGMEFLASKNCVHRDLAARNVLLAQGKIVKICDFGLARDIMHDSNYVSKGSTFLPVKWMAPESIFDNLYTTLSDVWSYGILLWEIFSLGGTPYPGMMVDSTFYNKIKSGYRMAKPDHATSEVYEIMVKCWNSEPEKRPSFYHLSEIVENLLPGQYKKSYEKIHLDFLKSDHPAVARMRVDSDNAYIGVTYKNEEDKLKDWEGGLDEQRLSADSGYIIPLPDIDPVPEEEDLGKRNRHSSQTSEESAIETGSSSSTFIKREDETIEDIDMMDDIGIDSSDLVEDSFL

The EC50 is the concentration at which the effect is half-maximal. For orientation: IC50 means the concentration that inhibits the measured activity by half. As for `Cc1cc([N+](=O)[O-])cc(/C=N\NC(=O)C2COc3ccccc3O2)c1O` (configuration not stated), the concentration for a half-maximal effect (EC50) in [1] is 2.74 µM (active); in [2], 2.79 µM (active). Moreover, the IC50 in test [3] was 17.6 µM (active); in [4] it was 14.5 µM (active); in test [5] it was 42.1 µM (active).

Take `CC(C)(C)c1cc[n+](C2=C([N-]S(=O)(=O)c3cccs3)C(=O)c3ccccc3C2=O)cc1`: the EC50 in test [1] was 2.73 µM (active); in [2], 7.2 µM (active). Further, the results for the IC50 in test [3], in [4] and in test [5] were 23.8 µM (active), 8.77 µM (active) and 9.58 µM (active), respectively.

Take `CCc1ccc(S(=O)(=O)/N=C2\C=C(Nc3ccc(O)cc3)C(=O)c3ccccc32)cc1`: the results for the 50% effective concentration (EC50) in test [1] and in test [2] were 1.86 µM (active) and 2.16 µM (active), respectively.

As usually defined, the Ki is a dissociation constant, usually derived from enzyme kinetics or from competition with a known ligand. Turning to `Cc1ccc(F)c(NC(=O)Nc2ccc(-c3cccc4[nH]nc(N)c34)cc2)c1` [LINIFANIB], the Ki in test [6] was > 3.16 µM (inactive); in test [7], > 3.16 µM (inactive); in test [8], 0.0501 µM (active); in [9], 0.0794 µM (active); in test [10], > 2 µM (inactive).

Turning to `CCCNC(=O)c1c(N)n(CC2CCCO2)c2nc3ccccc3nc12` (configuration not stated), the IC50 is 15.2 µM (active) in test [3], 2.83 µM (active) in [4] and 3.35 µM (active) in test [5].

`COc1c(-c2nc3ccccc3[nH]2)c(O)cc2oc(C)cc(=O)c12`: the Ki in [6] was 0.316 µM (active); in test [7], 0.794 µM (active); in test [8] it was 0.631 µM (active); in test [9], 0.794 µM (active); in test [10], 0.2 µM (active).

Consider `COC(=O)c1c(N)nc2ccccn12`, for which the Ki in test [6] was 25.1 µM (active); in [7] it was 39.8 µM (active); in test [8], 79.4 µM (active); in test [9], 15.8 µM (active); in test [10], 39.8 µM (active).

Regarding `O=C1/C(=C\c2cccc(O)c2O)SC(=S)N1Cc1ccccc1`, the EC50 was 2.77 µM (active) in test [1] and 6.24 µM (active) in test [2].
